# Assay results taken from patent US9980479B2, “Method of reducing nematode damage” (Syngenta Crop Protection, LLC, priority 2004, dated 2018).
# Like-named read-outs stand apart in the source and are kept apart here.
# Experiments:
# Meloidogyne [1] = test: Experiment 5: sandy soil cup test, live 2nd stage nematodes from eggs; type: in vivo; conditions: applied solution 3 ppm, 15 days of incubation
# Description: (§1) 110 grams of dry sandy soil is put into plastic cups. The soil is treated by adding 25 ml of water containing given concentrations (in ppm) of chemicals to the soil. The soil and water is carefully mixed and thereafter 1 ml of water containing 12,000 eggs of Meloidogyne is added. After 15 days of incubation, the samples are analyzed for live 2nd stage nematodes by sieving the sand and rinsing with tap water. The amount of rinseate is adjusted to 20 ml. From the 20 ml, 3 samples of 1 ml are taken and nematodes counted, using a counting chamber.
# [2] = system: nematodes (Pratylenchus spp.); conditions: tomato; for % yield increase over check / Total average weight of tomatoes per plant in gr: at harvest; for % damage of roots: drench 1, 14, 27 and 40 days after transplantation
# Description: (§2) Tomato plants are transplanted into a field infested with nematodes (Pratylenchus spp.) and treated with the treatments indicated in Table II below 1, 14, 27 and 40 days after transplantation. The products are applied by drenching 100 ml spray solution per plant. Plot size is 24 m^2 with 4 replicates. At harvest (up to 19 weeks later), all tomatoes are collected and weighted. The check is an untreated control.
# [3] = system: nematodes (Meloidogyne spp.); conditions: tomato; for % yield increase over check / Total average weight of tomatoes per 100 plant in kgr: at harvest; for % root galling: drench 1, 18, 32 and 46 days after transplantation
# Description: as §2, with “(Meloidogyne” for “(Pratylenchus”, “III” for “II”, “18, 32” for “14, 27”, “46” for “40”, “36.7” for “24”
# Meloidogyne [4] = test: Experiment 6: clay soil cup test, live 2nd stage nematodes from eggs; type: in vivo; conditions: applied solution 3 ppm, 15 days of incubation
# Description: as §1, with “50” for “110”, “clay” for “sandy”, “50” for “25”, “mixed,” for “mixed”, “10.,000” for “12,000”, “clay,” for “sand”
# [5] = system: nematodes (Meloidogyne spp.); conditions: tomato; for % yield increase over check / Total average weight of tomatoes per 100 plants: at harvest; for % average root galling: drench 1, 18, 32 and 46 days after transplantation
# Description: as §2, with “(Meloidogyne” for “(Pratylenchus”, “IV” for “II”, “18, 32” for “14, 27”, “46” for “40”, “42.7” for “24”
# [6] = system: nematodes (Pratylenchus spp.); conditions: tomato; for % yield increase over check / Total average weight of tomatoes per treatment: at harvest; for % damage of roots: drench 1, 14, 27 and 40 days after transplantation
# Description: as §2, with “I” for “II”
compound,measurement,setting,value
"N,N′-ethylenebis(hydroxyphenyl)glycines [EDDHA]",% reduction of live stages,Meloidogyne [1],0.1%
same,Number of live 2nd stage nematodes,Meloidogyne [1],1649
same,% yield increase over check,[2]; 500 g ai/ha,11%
same,Total average weight of tomatoes per plant in gr,[2]; 500 g ai/ha,3500 gr
same,% damage of roots,[2]; 500 g ai/ha,18.5%
same,% yield increase over check,[2]; 1000 g ai/ha,18%
same,Total average weight of tomatoes per plant in gr,[2]; 1000 g ai/ha,3695 gr
same,% damage of roots,[2]; 1000 g ai/ha,13.8%
same,% yield increase over check,[3]; 500 g ai/ha,13%
same,Total average weight of tomatoes per 100 plant in kgr,[3]; 500 g ai/ha,255 kgr
same,% root galling,[3]; 500 g ai/ha,35%
same,% yield increase over check,[3]; 1000 g ai/ha,17%
same,Total average weight of tomatoes per 100 plant in kgr,[3]; 1000 g ai/ha,265 kgr
same,% root galling,[3]; 1000 g ai/ha,26.1%
same,% reduction of live stages,Meloidogyne [4],0.3%
same,Number of live 2nd stage nematodes,Meloidogyne [4],1197
"O=C(O)CN(CCN(CC(=O)O)CC(=O)O)CC(=O)O [EDTA, ethylenediaminetetraacetic acid]",% reduction of live stages,Meloidogyne [1],0.1%
same,Number of live 2nd stage nematodes,Meloidogyne [1],1650
same,% yield increase over check,[5]; 500 g ai/ha,6%
same,Total average weight of tomatoes per 100 plants,[5]; 500 g ai/ha,349 kg
same,% average root galling,[5]; 500 g ai/ha,34.4%
same,% yield increase over check,[5]; 1000 g ai/ha,10%
same,Total average weight of tomatoes per 100 plants,[5]; 1000 g ai/ha,360 kg
same,% average root galling,[5]; 1000 g ai/ha,23.7%
same,% reduction of live stages,Meloidogyne [4],0.1%
same,Number of live 2nd stage nematodes,Meloidogyne [4],1200
same,% yield increase over check,[6]; 500 g ai/ha,12%
same,Total average weight of tomatoes per treatment,[6]; 500 g ai/ha,784 kg
same,% damage of roots,[6]; 500 g ai/ha,25.8%
same,% yield increase over check,[6]; 1000 g ai/ha,17%
same,Total average weight of tomatoes per treatment,[6]; 1000 g ai/ha,817 kg
same,% damage of roots,[6]; 1000 g ai/ha,22.5%
